This is an account of results in patent publication US20230050653A1, “ROCK INHIBITOR AND PREPARATION METHOD THEREFOR AND USE THEREOF” (WUHAN LL SCIENCE AND TECHNOLOGY DEVELOPMENT CO., LTD., priority 2019, published 2023).

pIC50: −log10 of the molar value.

As a reminder, the pIC50 is −log10 of the IC50, conventionally taken in molar units. Low readings indicate a high IC50, high ones a low IC50.

One test concerns the target T1, ROCK2 kinase (Homo sapiens, UniProt O75116).
T1 construct: purchased Invitrogen PV3759
The test is described as follows: In vitro evaluation of ROCK2 kinase activity (HTRF KinEASE-STK time-resolved fluorometric assay). In kind it is biochemical. The protocol: ROCK2 activity screening. ROCK2 activity was detected using a 96-well (Cisbio) time-resolved fluorometric assay. The assay for ROCK2 was performed in the following assay buffer: 5 mM MgCl2 (Sigma), 1 mM DTT (Sigma) and 1× kinase buffer. The kinase buffer was used for dilution. 7.5 μL of ROCK2 kinase (Invitrogen, PV3759) was added to a 96-well microplate to reach a final concentration of 0.4 ng/μL, and then 0.25 μL of test compound (DMSO content: 1% (volume fraction)) was added. The mixture was incubated at room temperature for 0.5 h. To start the reaction, the kinase buffer was used to mix ATP (Aladdin) and the substrate STK-substrate 2-biotin. 7.5 μL of the mixed solution was added to the microplate to reach final concentrations of 6.739 μM and 1 μM. The resulting mixture was incubated for 2 h at room temperature. 5 mL of detection buffer was mixed with STK antibody-Cryptate, and then an appropriate volume of the mixture was mixed with an equal volume of streptavidin-XL665. 10 μL of the resulting mixture was added to the microplate to stop the reaction. After further incubation for about 1 h, the microplate was read on a Molecular Devices SpectraMax i3x multifunctional microplate reader. The kinase buffer, the STK-substrate 2-biotin, the detection buffer, the STK antibody-Cryptate, and the streptavidin-XL665 were all from HTRF KinEASE-STK kit (Cisbio, 1000 tests, 61[…]).

In a further test the target is T2, ROCK1 kinase (Homo sapiens, UniProt Q13464).
T2 construct: purchased Invitrogen
Nature of the test: In vitro evaluation of ROCK1 kinase selectivity (HTRF KinEASE-STK time-resolved fluorometric assay). The format is biochemical. The method, then:
ROCK1 activity was detected using a 96-well (Cisbio) time-resolved fluorometric assay. The assay for ROCK1 was performed in the following assay buffer: 5 mM MgCl2 (Sigma), 1 mM DTT (Sigma) and 1× kinase buffer. The kinase buffer was used for dilution. 7.5 μL of ROCK1 kinase (Invitrogen) was added to a 96-well microplate to reach a final concentration of 0.4 ng/μL, and then 0.25 μL of test compound (DMSO content: 1%) was added. The mixture was incubated at room temperature for 0.5 h. To start the reaction, the kinase buffer was also used to mix ATP (Aladdin) and the substrate STK-substrate 2-biotin. 7.5 μL of the mixed solution was added to the microplate to reach final concentrations of 3.53 μM and 1 μM. The resulting mixture was incubated for 2 h at room temperature. […] was mixed with STK antibody-Cryptate, and then an appropriate volume of the mixture was mixed with an equal volume of streptavidin-XL665. 10 μL of the resulting mixture was added to stop the reaction. After further incubation for about 1 h, the microplate was read on a Molecular Devices SpectraMax i3x multifunctional microplate reader. The kinase buffer, the STK-substrate 2-biotin, the detection buffer, the STK antibody-Cryptate, and the streptavidin-XL665 were all from HTRF KinEASE-STK kit (Cisbio, 1000 tests, 61[…]).
Background: Time-resolved FRET reads energy transfer from a long-lived donor to a nearby acceptor.

T2 sequence (Q13464 whole entry): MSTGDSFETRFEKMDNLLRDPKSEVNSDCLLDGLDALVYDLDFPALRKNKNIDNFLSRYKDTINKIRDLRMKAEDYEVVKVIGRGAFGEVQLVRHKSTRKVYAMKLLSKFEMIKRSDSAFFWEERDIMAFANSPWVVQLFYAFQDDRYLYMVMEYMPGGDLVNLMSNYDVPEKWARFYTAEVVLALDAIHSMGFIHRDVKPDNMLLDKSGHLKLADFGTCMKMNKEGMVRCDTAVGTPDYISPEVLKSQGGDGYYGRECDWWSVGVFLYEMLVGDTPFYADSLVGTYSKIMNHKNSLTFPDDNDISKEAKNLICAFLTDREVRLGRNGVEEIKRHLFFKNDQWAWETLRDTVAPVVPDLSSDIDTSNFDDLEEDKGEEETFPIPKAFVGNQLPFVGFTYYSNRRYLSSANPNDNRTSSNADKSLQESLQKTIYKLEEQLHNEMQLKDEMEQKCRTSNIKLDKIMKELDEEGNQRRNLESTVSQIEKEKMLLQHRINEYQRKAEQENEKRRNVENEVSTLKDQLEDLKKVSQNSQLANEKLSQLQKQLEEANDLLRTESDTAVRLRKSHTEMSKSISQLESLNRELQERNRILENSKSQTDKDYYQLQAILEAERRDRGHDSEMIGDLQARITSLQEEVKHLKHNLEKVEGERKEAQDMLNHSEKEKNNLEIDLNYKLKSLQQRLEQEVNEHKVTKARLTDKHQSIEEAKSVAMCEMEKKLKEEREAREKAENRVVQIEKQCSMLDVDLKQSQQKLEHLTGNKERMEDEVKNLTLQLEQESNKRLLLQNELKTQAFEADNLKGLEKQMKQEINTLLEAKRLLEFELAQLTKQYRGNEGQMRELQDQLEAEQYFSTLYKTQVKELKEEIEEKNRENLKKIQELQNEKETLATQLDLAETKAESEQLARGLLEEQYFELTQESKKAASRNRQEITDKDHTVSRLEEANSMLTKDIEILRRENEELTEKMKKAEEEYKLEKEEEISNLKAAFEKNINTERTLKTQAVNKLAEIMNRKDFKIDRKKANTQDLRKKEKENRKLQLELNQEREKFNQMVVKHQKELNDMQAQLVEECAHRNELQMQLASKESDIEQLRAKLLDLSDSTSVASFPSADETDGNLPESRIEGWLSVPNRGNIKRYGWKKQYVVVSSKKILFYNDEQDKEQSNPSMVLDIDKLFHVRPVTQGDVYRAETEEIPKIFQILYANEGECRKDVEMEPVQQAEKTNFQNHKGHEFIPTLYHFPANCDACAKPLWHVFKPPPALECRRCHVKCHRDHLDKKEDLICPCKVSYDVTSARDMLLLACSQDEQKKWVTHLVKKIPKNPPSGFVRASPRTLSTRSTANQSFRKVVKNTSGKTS
T1 sequence (O75116 whole entry): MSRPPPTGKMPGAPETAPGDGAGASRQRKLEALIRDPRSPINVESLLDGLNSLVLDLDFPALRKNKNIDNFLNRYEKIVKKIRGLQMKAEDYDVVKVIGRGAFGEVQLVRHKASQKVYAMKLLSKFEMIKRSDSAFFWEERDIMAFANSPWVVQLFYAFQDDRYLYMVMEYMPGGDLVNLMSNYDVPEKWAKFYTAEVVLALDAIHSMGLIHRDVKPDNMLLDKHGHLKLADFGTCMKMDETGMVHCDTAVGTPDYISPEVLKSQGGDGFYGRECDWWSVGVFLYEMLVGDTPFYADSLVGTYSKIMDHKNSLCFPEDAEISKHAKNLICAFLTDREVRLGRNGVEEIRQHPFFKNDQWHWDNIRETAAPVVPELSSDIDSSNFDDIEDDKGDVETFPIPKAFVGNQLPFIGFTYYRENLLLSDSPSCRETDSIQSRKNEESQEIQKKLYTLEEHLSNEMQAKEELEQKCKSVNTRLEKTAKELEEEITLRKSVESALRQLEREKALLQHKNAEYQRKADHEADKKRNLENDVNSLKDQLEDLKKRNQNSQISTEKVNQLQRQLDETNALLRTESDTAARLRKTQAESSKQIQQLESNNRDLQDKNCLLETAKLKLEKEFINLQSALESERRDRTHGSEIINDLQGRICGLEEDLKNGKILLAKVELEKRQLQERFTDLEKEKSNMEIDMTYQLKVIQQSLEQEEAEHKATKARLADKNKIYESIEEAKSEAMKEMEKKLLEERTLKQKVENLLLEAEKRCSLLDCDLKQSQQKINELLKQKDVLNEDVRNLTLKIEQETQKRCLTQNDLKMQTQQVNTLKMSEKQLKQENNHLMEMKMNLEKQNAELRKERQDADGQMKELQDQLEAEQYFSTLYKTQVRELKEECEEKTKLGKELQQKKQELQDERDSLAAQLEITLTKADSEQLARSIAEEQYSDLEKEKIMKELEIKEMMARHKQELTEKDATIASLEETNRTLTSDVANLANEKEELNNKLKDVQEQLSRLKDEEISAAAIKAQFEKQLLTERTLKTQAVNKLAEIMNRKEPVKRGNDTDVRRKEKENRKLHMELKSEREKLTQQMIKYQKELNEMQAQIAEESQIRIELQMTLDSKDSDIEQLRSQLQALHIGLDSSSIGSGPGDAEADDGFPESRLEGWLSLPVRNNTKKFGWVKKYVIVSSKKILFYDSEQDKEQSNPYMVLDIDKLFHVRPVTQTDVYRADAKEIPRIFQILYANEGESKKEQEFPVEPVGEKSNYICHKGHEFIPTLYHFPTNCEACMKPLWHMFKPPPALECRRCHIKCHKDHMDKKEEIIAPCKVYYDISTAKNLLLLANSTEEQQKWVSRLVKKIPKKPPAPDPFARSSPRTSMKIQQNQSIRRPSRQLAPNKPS

Turning to `COc1cc(F)cc([C@@H](CO)NC(=O)N2CCc3cc(-c4c[nH]nc4N)c(F)cc32)c1` [Compound T365, (S′)-5-(3-amino-1H-pyrazol-4-yl)-6-fluoro-N-(1-(3-fluoro-5-methoxyphenyl)-2-hydroxyethyl)indoline-1-carboxamide], the pIC50 was at least 7.30 on ROCK2 kinase and 6.30 to 7.30 at ROCK1 kinase.
For the compound `CN(C)C[C@H](NC(=O)N1CCc2cc(-c3c[nH]nc3F)c(F)cc21)c1cc(F)cc(F)c1` [Compound T366-R, (R)-N-(1-(3,5-difluorophenyl)-2-(dimethylamino)ethyl)-6-fluoro-5-(3-fluoro-1H-pyrazol-4-yl)indoline-1-carboxamide], the pIC50 was 6.30 to 7.30 at ROCK2 kinase and 5.30 to 6.30 at ROCK1 kinase.
For `CN(C)C[C@@H](NC(=O)N1CCc2cc(-c3c[nH]nc3F)c(F)cc21)c1cc(F)cc(F)c1` [Compound T366-S, (S)-N-(1-(3,5-difluorophenyl)-2-(dimethylamino)ethyl)-6-fluoro-5-(3-fluoro-1H-pyrazol-4-yl)indoline-1-carboxamide] the same measures were at least 7.30 and at least 7.30.
For `CC(C)CNC(=O)COc1cc(F)cc([C@@H](CO)NC(=O)N2CCc3cc(-c4cn[nH]c4)c(F)cc32)c1` [Compound T367, (S)-6-fluoro-N-(1-(3-fluoro-5-(2-(isobutylamino)-2-oxoethoxy)phenyl)-2-hydroxyethyl)-5-(1H-pyrazol-4-yl)indoline-1-carboxamide] the same measures were at least 7.30 and at least 7.30.
The matching figures for `O=C(NCc1cccc(F)c1)c1ncn2cc(-c3cn[nH]c3)ccc12` [Compound T368, N-(3-fluorobenzyl)-6-(1H-pyrazol-4-yl)imidazo[1,5-a]pyridine-1-carboxamide]: 6.30 to 7.30 and 5.30 to 6.30.
As to `O=C(COc1cc(F)cc([C@@H](CO)NC(=O)N2CCc3cc(-c4cn[nH]c4)c(F)cc32)c1)NC1CC(F)(F)C1` [Compound T369, (S)-N-(1-(3-(2-((3,3-difluorocyclobutyl)amino)-2-oxoethoxy)-5-fluorophenyl)-2-hydroxyethyl)-6-fluoro-5-(1H-pyrazol-4-yl)indoline-1-carboxamide], the pIC50 against ROCK2 kinase and on ROCK1 kinase was at least 7.30 in each case.
Take `COc1cc(F)cc([C@@H](C)NC(=O)c2ncn3cc(-c4cn[nH]c4F)ccc23)c1` [Compound T370, (R)-6-(5-fluoro-1H-pyrazol-4-yl)-N-(1-(3-fluoro-5-methoxyphenyl)ethyl)imidazo[1,5-a]pyridine-1-carboxamide]: the pIC50 against ROCK2 kinase and on ROCK1 kinase was at least 7.30 each time.
In the case of `COc1cc(F)cc(C(CN)NC(=O)N2CCc3cc(-c4cn[nH]c4)c(F)cc32)c1` (centres unmarked) [Compound T371, N-(2-amino-1-(3-fluoro-5-methoxyphenyl)ethyl)-6-fluoro-5-(1H-pyrazol-4-yl)indoline-1-carboxamide], the pIC50 against ROCK2 kinase and against ROCK1 kinase was at least 7.30 in each case.
For the compound `COc1cc(F)cc(CNC(=O)N2CCc3c2ccc(-c2cn[nH]c2)c3F)c1` [Compound T372, 4-fluoro-N-(3-fluoro-5-methoxybenzyl)-5-(1H-pyrazol-4-yl)indoline-1-carboxamide], the pIC50 on ROCK2 kinase and on ROCK1 kinase was at least 7.30 each time.
As for `COc1cc(F)cc([C@@H](CO)NC(=O)c2ncc3cc(-c4cn[nH]c4)ccn23)c1` [Compound T373, (5)-N-(1-(3-fluoro-5-methoxyphenyl)-2-hydroxyethyl)-7-(1H-pyrazol-4-yl)imidazo[1,5-a]pyridine-3-carboxamide], the pIC50 at ROCK2 kinase and on ROCK1 kinase was at least 7.30 each time.
Regarding `COc1cc(F)cc([C@@H](CO)NC(=O)N2CCc3cc(-c4c[nH]nc4F)c(F)cc32)c1` [Compound T374, (S)-6-fluoro-5-(3-fluoro-1H-pyrazol-4-yl)-N-(1-(3-fluoro-5-methoxyphenyl)-2-hydroxyethyl)indoline-1-carboxamide], the pIC50 at ROCK2 kinase and on ROCK1 kinase was at least 7.30 each time.
With `O=C(NCc1cc(F)cc(OC(F)F)c1)N1CCc2cc(-c3cn[nH]c3)c(F)cc21` [Compound T375, N-(3-(difluoromethoxy)-5-fluorobenzyl)-6-fluoro-5-(1H-pyrazol-4-yl)indoline-1-carboxamide], the pIC50 is at least 7.30 on ROCK2 kinase and 6.30 to 7.30 against ROCK1 kinase.
Turning to `O=C(NCc1cccc(OCC2CC2)c1)c1ncn2cc(-c3cn[nH]c3)ccc12` [Compound T376, N-(3-(cyclopropylmethoxy)benzyl)-6-(1H-pyrazol-4-yl)imidazo[1,5-a]pyridine-1-carboxamide], the pIC50 against ROCK2 kinase was 6.30 to 7.30; against ROCK1 kinase, 5.30 to 6.30.
The matching figures for `COc1cc(F)cc([C@@H](CO)NC(=O)N2CCc3cc(-c4cn[nH]c4)c(F)cc32)c1` [Compound T377, (S)-6-fluoro-N-(1-(3-fluoro-5-methoxyphenyl)-2-hydroxyethyl)-5-(1H-pyrazol-4-yl)indoline-1-carboxamide]: at least 7.30 and at least 7.30.
As for `O=C(NCC1CC1)c1cc(F)cc(CNC(=O)N2CCc3cc(-c4cn[nH]c4)c(F)cc32)c1` [Compound T378, N-(3-((cyclopropylmethyl)carbamoyl)-5-fluorobenzyl)-6-fluoro-5-(1H-pyrazol-4-yl)indoline-1-carboxamide], the pIC50 against ROCK2 kinase and at ROCK1 kinase was at least 7.30 throughout.
Turning to `CN1CC(NC(=O)c2cccc(CNC(=O)N3CCc4cc(-c5cn[nH]c5)c(F)cc43)c2)C1` [Compound T379, 6-fluoro-N-(3-((1-methylazetidin-3-yl)carbamoyl)benzyl)-5-(1H-pyrazol-4-yl)indoline-1-carboxamide], the pIC50 against ROCK2 kinase and on ROCK1 kinase was at least 7.30 in each case.
Take `COc1cc(F)cc([C@@H](CO)NC(=O)N2CCc3cc(-c4c[nH]nc4C)c(F)cc32)c1` [Compound T381, (S)-6-fluoro-N-(1-(3-fluoro-5-methoxyphenyl)-2-hydroxyethyl)-5-(3-methyl-1H-pyrazol-4-yl)indoline-1-carboxamide]: the pIC50 against ROCK2 kinase and against ROCK1 kinase was at least 7.30 in each case.
`O=C(NCC1CC1)c1cccc(CNC(=O)N2CCc3cc(-c4cn[nH]c4)c(F)cc32)c1` [Compound T382, N-(3-((cyclopropylmethyl)carbamoyl)benzyl)-6-fluoro-5-(1H-pyrazol-4-yl)indoline-1-carboxamide]: the pIC50 against ROCK2 kinase and on ROCK1 kinase was at least 7.30 throughout.
Regarding `COc1cccc(CCC(=O)N2CCc3cc(-c4c[nH]nc4N)c(F)cc32)c1` [Compound T383], the pIC50 at ROCK2 kinase and against ROCK1 kinase was 5.30 to 6.30 in each case.
Take `O=C(N[C@H](CO)c1cc(F)cc(OCC2CC2)c1)N1CCc2cc(-c3cn[nH]c3)c(F)cc21` [Compound T386, (S)-N-(1-(3-(cyclopropylmethoxy)-5-fluorophenyl)-2-hydroxyethyl)-6-fluoro-5-(1H-pyrazol-4-yl)indoline-1-carboxamide]: the pIC50 against ROCK2 kinase is at least 7.30; against ROCK1 kinase, 6.30 to 7.30.
The matching figures for `O=C(NC1CCCC1)c1cc(F)cc(C(CO)NC(=O)N2CCc3cc(-c4cn[nH]c4)c(F)cc32)c1` (centres unmarked) [Compound T389, N-(1-(3-(cyclopentylcarbamoyl)-5-fluorophenyl)-2-hydroxyethyl)-6-fluoro-5-(1H-pyrazol-4-yl)indoline-1-carboxamide]: at least 7.30 and at least 7.30.
Regarding `CCOc1cc(F)cc([C@@H](CO)NC(=O)N2CCc3cc(-c4cn[nH]c4)c(F)cc32)c1` [Compound T390, (S′)-N-(1-(3-ethoxy-5-fluorophenyl)-2-hydroxyethyl)-6-fluoro-5-(1N-pyrazol-4-yl)indoline-1-carboxamide], the pIC50 against ROCK2 kinase was at least 7.30; at ROCK1 kinase, 6.30 to 7.30.
